Assay results reported in ChEMBL document CHEMBL4627407, “Identification of a Potent Oridonin Analogue for Treatment of Triple-Negative Breast Cancer” (J Med Chem, 2020).
Active and inactive are the calls of the source. The rule behind the calls is not given here.

Experiments:
HCC1806 [1] = assay: Antitumor activity against human HCC1806 cells harboring luciferase gene xenografted in ICR mouse assessed as shrunken tumor tissue at 12.5 to 25 mg/kg, iv administered once daily for 21 consecutive days and measured once every week; type: functional, organism-based
HCC1806 [2] = assay: Induction of apoptosis in human HCC1806 cells assessed as early apoptotic cells at 200 uM after 48 hrs by Annexin V-FITC/propidium iodide double staining based flow cytometry (reference value: 2.16%); type: functional
HCC1806 [3] = assay: Suppression of FAK expression in human HCC1806 cells at 50 to 200 nM after 48 hrs by Western blot assay; type: functional, cell-based
[4] = target: Focal adhesion kinase 1 (Homo sapiens) (UniProt Q05397); assay: Inhibition of FAK phosphorylation at Tyr397 residue in human HCC1806 cells at 50 to 200 nM after 48 hrs by Western blot analysis; type: cell-based
Focal adhesion kinase 1 (Homo sapiens), sequence (Q05397 2-1052 limits assumed): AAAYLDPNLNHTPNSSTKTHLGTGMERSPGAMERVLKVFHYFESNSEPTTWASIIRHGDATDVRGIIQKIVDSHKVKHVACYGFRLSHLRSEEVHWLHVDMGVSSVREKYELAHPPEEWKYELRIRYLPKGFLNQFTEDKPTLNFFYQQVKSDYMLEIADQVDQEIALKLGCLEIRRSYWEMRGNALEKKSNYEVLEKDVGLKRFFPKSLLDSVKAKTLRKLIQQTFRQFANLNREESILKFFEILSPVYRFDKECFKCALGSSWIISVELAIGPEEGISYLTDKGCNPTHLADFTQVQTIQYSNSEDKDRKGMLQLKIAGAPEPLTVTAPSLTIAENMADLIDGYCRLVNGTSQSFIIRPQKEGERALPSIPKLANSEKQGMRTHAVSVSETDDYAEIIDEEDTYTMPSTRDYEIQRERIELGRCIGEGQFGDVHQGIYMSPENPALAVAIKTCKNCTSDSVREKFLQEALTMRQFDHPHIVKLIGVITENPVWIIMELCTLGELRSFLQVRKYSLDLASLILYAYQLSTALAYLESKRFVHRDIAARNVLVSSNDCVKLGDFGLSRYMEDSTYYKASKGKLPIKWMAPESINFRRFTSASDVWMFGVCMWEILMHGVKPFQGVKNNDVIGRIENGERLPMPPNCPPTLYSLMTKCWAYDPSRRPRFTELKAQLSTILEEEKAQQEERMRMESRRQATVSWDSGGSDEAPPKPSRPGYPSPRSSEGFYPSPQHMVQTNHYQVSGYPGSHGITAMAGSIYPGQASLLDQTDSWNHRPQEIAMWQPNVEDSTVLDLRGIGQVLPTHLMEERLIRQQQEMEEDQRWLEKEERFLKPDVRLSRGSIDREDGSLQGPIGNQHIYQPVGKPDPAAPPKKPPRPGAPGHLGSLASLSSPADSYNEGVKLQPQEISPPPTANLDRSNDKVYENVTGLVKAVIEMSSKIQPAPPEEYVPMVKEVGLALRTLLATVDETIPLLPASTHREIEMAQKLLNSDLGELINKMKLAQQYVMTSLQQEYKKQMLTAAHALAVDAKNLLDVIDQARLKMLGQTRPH

HCC1806 [5] = assay: Induction of cell cycle arrest in human HCC1806 cells assessed as accumulation at G2/M phase at 100 nM after 48 hrs by propidium iodide staining based FACScan flow cytometry (reference value: 10.38%); type: functional
[6] = Toxicity in ICR mouse assessed as induction of morphological changes in liver at 25 mg/kg, iv administered once per day for 23 consecutive days; type: organism-based; settings: in vivo
HCC1806 [7] = assay: Antiproliferative activity against human HCC1806 cells after 72 hrs by MTT assay; type: functional, cell-based; settings: HCC1806, 72 h
HCC1806 [8] = assay: Induction of intracellular reactive oxygen species generation in human HCC1806 cells at 200 nM incubated for 48 hrs in presence of ROS scavenger N-acetyl cysteine by DCFH2-DA staining based flow cytometeric analysis; type: functional, cell-based
HCC1806 [9] = assay: Induction of apoptosis in human HCC1806 cells assessed as necrotic cells at 200 uM after 48 hrs by Annexin V-FITC/propidium iodide double staining based flow cytometry (reference value: 1.32%); type: functional
HCC1806 [10] = assay: Antimigratory activity against human HCC1806 cells assessed as reduction in MMP9 expression at 50 to 200 nM after 48 hrs by Western blot analysis; type: functional, cell-based
[11] = Inhibition of PI3K/Akt/mTOR signalling pathway in human HCC1806 cells assessed as reduction in phosphorylated mTOR expression at S2448 residue after 48 hrs by Western blot analysis; type: cell-based
HCC1806 [12] = assay: Induction of apoptosis in human HCC1806 cells assessed as late apoptotic cells at 200 uM after 48 hrs by Annexin V-FITC/propidium iodide double staining based flow cytometry (reference value: 0.81%); type: functional
HCC1806 [13] = assay: Induction of cell cycle arrest in human HCC1806 cells assessed as accumulation at S phase at 200 nM after 48 hrs by propidium iodide staining based FACScan flow cytometry (reference value: 18.89%); type: functional
HCC1806 [14] = assay: Induction of apoptosis in human HCC1806 cells assessed as necrotic cells at 100 uM after 48 hrs by Annexin V-FITC/propidium iodide double staining based flow cytometry (reference value: 1.32%); type: functional
HCC1806 [15] = assay: Antitumor activity against human HCC1806 cells xenografted in iv dosed ICR mouse assessed as reduction in tumor volume administered once per day for 23 consecutive days and measured every 2 days; type: functional, organism-based
DU-4475 = assay: Antiproliferative activity against human DU4475 cells after 72 hrs by MTT assay; type: functional, cell-based; settings: DU-4475, 72 h
HCC1806 [16] = assay: Antitumor activity against human HCC1806 cells in ICR mouse assessed as increase in apoptosis in tumor at 12.5 to 25 mg/kg, iv administered once per day for 23 consecutive days by hematoxylin and eosin staining based histopathological assay; type: functional, organism-based
HCC1806 [17] = assay: Antitumor activity against human HCC1806 cells in ICR mouse assessed as reduction in tumor weight at 25 mg/kg, iv administered once per day for 23 consecutive days and measured every 2 days relative to control; type: functional; design: scale not given: the % may be the effect or the level left
[18] = Inhibition of PI3K/Akt/mTOR signalling pathway in human HCC1806 cells assessed as reduction in phosphorylated PI3K expression at Y458 residue after 48 hrs by Western blot analysis; type: cell-based
HCC1806 [19] = assay: Inhibition of cell adhesion in human HCC1806 cells incubated for 48 hrs by phase contrast microscopy; type: functional, cell-based
[20] = Toxicity in ICR mouse assessed as reduction in body weight at 12.5 to 25 mg/kg, iv administered once per day for 23 consecutive days and measured every 2 days; type: organism-based; settings: in vivo, 48 h
[21] = target: T1, M-phase inducer phosphatase 3 (Homo sapiens) (UniProt P30307); assay: Inhibition of cdc25c in human HCC1806 cells assessed as increase in cdc25c phosphorylation at ser216 residue by western blot analysis; type: cell-based
T1 sequence (whole entry): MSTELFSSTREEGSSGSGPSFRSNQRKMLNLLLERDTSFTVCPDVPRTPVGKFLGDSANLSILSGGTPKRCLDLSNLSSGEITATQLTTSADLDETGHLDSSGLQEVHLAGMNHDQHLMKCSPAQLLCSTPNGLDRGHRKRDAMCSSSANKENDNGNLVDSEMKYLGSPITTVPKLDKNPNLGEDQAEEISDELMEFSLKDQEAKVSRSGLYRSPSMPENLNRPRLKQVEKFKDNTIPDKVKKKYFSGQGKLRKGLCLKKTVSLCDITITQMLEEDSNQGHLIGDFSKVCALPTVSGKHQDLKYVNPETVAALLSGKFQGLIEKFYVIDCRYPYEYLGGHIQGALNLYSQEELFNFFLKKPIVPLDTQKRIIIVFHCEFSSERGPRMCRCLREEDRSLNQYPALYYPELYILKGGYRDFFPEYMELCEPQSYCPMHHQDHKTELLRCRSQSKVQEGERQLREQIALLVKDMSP

T47D = assay: Antiproliferative activity against human T47D cells after 72 hrs by MTT assay; type: functional, cell-based
HCC1806 [22] = assay: Antitumor activity against human HCC1806 cells in ICR mouse assessed as tumor shrinkage at 12.5 to 25 mg/kg, iv administered once per day for 23 consecutive days by Ki67 staining-based immunohistochemical analysis; type: functional, organism-based
HCC1806 [23] = assay: Induction of cell cycle arrest in human HCC1806 cells assessed as accumulation at S phase at 100 nM after 48 hrs by propidium iodide staining based FACScan flow cytometry (reference value: 18.89%); type: functional
HCC1806 [24] = assay: Induction of intracellular reactive oxygen species generation in human HCC1806 cells assessed as accumulation of DCFH2-DA positive cells at 200 nM incubated for 48 hrs by flow cytometeric analysis (reference value: 3.53%); type: functional
HCC1806 [25] = assay: Antimigratory activity against human HCC1806 cells assessed as reduction in MMP2 expression at 50 to 200 nM after 48 hrs by Western blot analysis; type: functional, cell-based
[26] = Toxicity in ICR mouse assessed as induction of morphological changes in heart at 25 mg/kg, iv administered once per day for 23 consecutive days; type: organism-based; settings: in vivo
HCC1806 [27] = assay: Antimigratory activity in human HCC1806 cells assessed as reduction in integrin beta1 level after 48 hrs by Western blot analysis; type: functional, cell-based
HCC1806 [28] = assay: Induction of apoptosis in human HCC1806 cells assessed as late apoptotic cells at 100 uM after 48 hrs by Annexin V-FITC/propidium iodide double staining based flow cytometry (reference value: 0.81%); type: functional

inhibition [4]: Active | IC50 (HCC1806 [7]): 180 nM | inhibition [21]: Dose-dependent effect | IC50 (T47D): 560 nM
SMILES: C=C1C(=O)[C@@]23C(=O)[C@@H]4OC[C@]5(C=CCC(C)(C)[C@@H]45)[C@@H]2CC[C@@H]1[C@H]3OC(=O)/C=C/c1ccncc1
Activity (HCC1806 [1]): Active | Activity (HCC1806 [2]): 22.49% | inhibition (HCC1806 [3]): inactive | Activity (HCC1806 [5]): 20.26% | Activity [6]: Non-Toxic | Activity (HCC1806 [8]): inactive | Activity (HCC1806 [9]): 4.32% | Activity (HCC1806 [10]): Active | inhibition [11]: Dose-dependent effect | Activity (HCC1806 [12]): 22.79% | Activity (HCC1806 [13]): 20.74% | Activity (HCC1806 [14]): 0.66% | Activity (HCC1806 [15]): Dose-dependent effect | IC50 (DU-4475): 210 nM | Activity (HCC1806 [16]): Active | Activity (HCC1806 [17]): 74.1% | inhibition [18]: Dose-dependent effect | inhibition (HCC1806 [19]): Dose-dependent effect | Activity [20]: Non-Toxic | Activity (HCC1806 [22]): Active | Activity (HCC1806 [23]): 19.13% | Activity (HCC1806 [24]): 45.87% | Activity (HCC1806 [25]): Active | Activity [26]: Non-Toxic | Activity (HCC1806 [27]): Dose-dependent effect | Activity (HCC1806 [28]): 3.61%
